# Measurements as given in patent US9908877B2, “Imidazo[1,5-a]pyridinium ion fluorophores, and methods of making and using the same” (Indiana University Research and Technology Corporation, priority 2013, dated 2018).
# Values joined by “and” are separate entries in the source; they are usually repeats but may differ in a detail not shown here. Equal values may be shown once.
# Tests used:
# Assay type in all cases: physicochemical
# [1] = Fluorescence quantum yield, integrating sphere
# Protocol: Method for Determining Quantum Yield
# Quantum yield is determined using an integrating sphere attached to a QM-4-CW Spectrofluorometer using FeliX32 software (Photon Technology International).
# (§1) The compounds were analyzed at 298° K according to the Method for Obtaining Ultraviolet-Visible Light Spectrum (30 μM acetonitrile) to obtain the maximum absorbance wavelength (λabs,max), Method for Obtaining Fluorescence Emission Spectrum (30 μM acetonitrile) to obtain the maximum emission wavelength (λem,max) and Method for Determining Quantum Yield (ΦF) (30 μM acetonitrile) at the concentration, in the solvent, and with the counter ion indicated in Table 1. The compounds included hydrogen at each R group that is not otherwise specified.
# (§2) Compounds 6, 7, 9, 11-14 and 21 were analyzed according to: the Method for Obtaining Ultraviolet-Visible Light Spectrum to obtain the maximum absorbance wavelength (λabs,max), the Method for Obtaining Fluorescence Emission Spectrum to obtain the maximum emission wavelength (λem,max), and the Method for Determining Quantum Yield (ΦF) in the solvent and with the counter ion indicated in Table 3.
# [2] = pKa from fluorescence intensity versus pH; conditions: non-linear regression of fluorescence intensity versus pH, buffered water pH 2.5 to 7.5
# Protocol: Method for Determining pKa
# A pKa value is determined by plotting fluorescence intensity (Imax) at emission maxima against pH and fitting the result to the non-linear expression in equation (1) (i.e., eq.(1)). In eq (1), a and b are the molar coefficient of the acid (HA) and base (A^−) form, respectively, and c is the combined overall concentration of the acid and base form. i.e., c=[HA]+[A^−].
# [3] = Ultraviolet-visible light spectrum (maximum absorbance wavelength)
# Protocol: Method for Obtaining an Ultraviolet-Visible Light Spectrum
# Ultraviolet-visible (UV-Vis) Light spectra are obtained and recorded on an Agilent 8453 spectrophotometer using ChemStation software (Agilent Technologies, Inc., Santa Clara, Calif.).
# as §1, §2
# [4] = Fluorescence emission in a series of organic solvents; conditions: 30 μM, excited at 360 nm
# Protocol: Compound 6 was placed in the series of organic solvents at a concentration of 30 μM, excited with radiation at 360 nm, and monitored for fluorescence emission. The organic solvent, intensity of fluorescence emission (ET), and maximum emission wavelength in nm and cm^−1, are set forth below in Table 2.
# [5] = Fluorescence response to trifluoroacetic acid / DBU in acetonitrile
# Protocol: A 30 μM solution of Compound 6 in acetonitrile was prepared by adding 99 μL of a stock solution of 3.04 mM Compound 6 in methanol to 10 mL of acetonitrile. An initial fluorescence emission spectrum of the solution was obtained and is illustrated by curve (i) in FIG. 1A.
# A series of approximately 13.8 μL aliquots of trifluoroacetic acid (TFA) were then added to the 30 μM solution of Compound 6 until a total concentration of 60.0 mM of TFA was present in the solution. (The total amount of TFA present in the solution corresponded to 2000 equivalents of acid per equivalent of Compound 6.) The fluorescence emission spectrum of the resulting solution was obtained and is illustrated by curve (ii) in FIG. 1A.
# A base, i.e., 1,8-diazabicyclo[5.4.0]undec-7-ene (DBU), was then added to the solution to neutralize the acid until a concentration of 90 mM DBU was obtained. The fluorescence emission spectrum of the resulting solution was obtained and is illustrated by curve (iii) in FIG. 1A. The fluorescence emission intensity at λem,max=565 nm increased as the amount of base present in the system increased and the fluorescence emission intensity at λem,max=405 nm decreased as the amount of base present in the system increased, which reflected Compound 6's ratiometric response to the changing base concentration in acetonitrile.
# A 30 μM solution of Compound 7 in acetonitrile was prepared by adding 84 μL of a stock solution of 3.58 mM Compound 7 in methanol to 10 mL of acetonitrile. The emission spectrum of the solution was then obtained and is illustrated by curve (i) in FIG. 1B.
# A series of approximately 13.8 μL aliquots of TFA were then added to the 30 μM solution of Compound 7 until a total concentration of 60.0 mM TFA was present in the solution (which corresponded to 2000 equivalents of acid per equivalent of Compound 7). The fluorescence emission spectrum of the solution was obtained and is illustrated by curve (ii) in FIG. 1B.
# After the 60 mM TFA concentration was achieved, DBU was gradually added to the solution until a total concentration of 90 mM DBU was present in the solution. The fluorescence spectrum of the solution was obtained and is illustrated by curve (iii) in FIG. 1B.
# An aliquot of 50 μL of trifluoroacetic acid was then added to the system, and the fluorescence emission spectrum was obtained and is illustrated by the curved line with a peak at 360 nm in FIG. 6A.
# Compound 10 was placed in neat acetonitrile and its emission spectrum was monitored as trifluoroacetic acid was added to the acetonitrile in incremental amounts to achieve a solution that included an acid concentration ranging from 0 to 0.2 M. After each acid addition the sample was excited with radiation of a wavelength 340 nm, and its fluorescence emission spectrum was monitored. The results are illustrated in FIG. 7A.
# The solution of Compound 10 in acetonitrile was titrated with trifluoroacetic acid (TFA). […] The first stage, which occurred with the addition of the initial aliquots of TFA, was a slight increase intensity at 580 nm, as illustrated in FIG. 7A. As more TFA was added to the system, a second transition occurred in which the emission at 580 nm began to decrease and as the emission at 400 nm began to increase, as illustrated in FIG. 7B. A plot of the emission intensity at 580 nm versus pH and at 400 nm versus pH is illustrated in FIG. 7C.
# Compounds 10, 11, and 12 were then each individually added, at a concentration of 30 μM, to acetonitrile and the emission spectrum of each was monitored. The compounds emitted at 600 nm with an intensity of about 7.57×10^5 arbitrary units (a.u.) in neat acetonitrile. […] FIG. 8B illustrates the emission properties of Compound 12.
# [6] = Dimethylsulfoxide (ET(30) 45.1)
smiles,measurement,setting,value
"CCN(CC)c1ccc(-c2c3cccc[n+]3cn2-c2ccc(OC)cc2)cc1.[Cl-] [Compound 6, 1-(4-(diethylamino)phenyl)-2-(4-methoxyphenyl)-2H-imidazo[1,5-a]pyridin-4-ium chloride]",[…]F (quantum yield),"[1]; H2O (pH not given), 30 μM",16%
same,[…]F (quantum yield),"[1]; H2O pH = 2.5, 30 μM",31%
same,[…]F (quantum yield),"[1]; MeCN + 13.8 uL TFA, 30 μM",49%
same,[…]F (quantum yield),"[1]; MeCN, 30 μM",59%
same,pKa,[2],5
same,"λabs, max Abs","[3]; H2O (pH not given), 30 μM",350 nm
same,"λabs, max Abs","[3]; H2O pH = 2.5, 30 μM",350 nm
same,"λabs, max Abs","[3]; MeCN + 13.8 uL TFA, 30 μM",350 nm
same,"λabs, max Abs","[3]; MeCN, 30 μM",350 nm
same,maximum emission Wavelength,[4]; Acetonitrile (ET(30) 45.6),559 nm
same,maximum emission wavenumber,[4]; Acetonitrile (ET(30) 45.6),17889.09 cm⁻¹
same,maximum emission Wavelength,[4]; Benzene (ET(30) 34.3),567 nm
same,maximum emission wavenumber,[4]; Benzene (ET(30) 34.3),17636.68 cm⁻¹
same,maximum emission Wavelength,[4]; Chloroform (ET(30) 39.1),533 nm
same,maximum emission wavenumber,[4]; Chloroform (ET(30) 39.1),18761.73 cm⁻¹
same,maximum emission Wavelength,[4]; Dichloromethane (ET(30) 40.7),535 nm
same,maximum emission wavenumber,[4]; Dichloromethane (ET(30) 40.7),18691.59 cm⁻¹
same,maximum emission Wavelength,[4]; [6],567 nm
same,maximum emission wavenumber,[4]; [6],17636.68 cm⁻¹
same,maximum emission Wavelength,[4]; Hexane (ET(30) 31),561 nm
same,maximum emission wavenumber,[4]; Hexane (ET(30) 31),17825.31 cm⁻¹
same,maximum emission Wavelength,[4]; Tetrahydrofuran (ET(30) 37.4),541 nm
same,maximum emission wavenumber,[4]; Tetrahydrofuran (ET(30) 37.4),18484.29 cm⁻¹
same,maximum emission Wavelength,[4]; Toluene (ET(30) 33.9),568 nm
same,maximum emission wavenumber,[4]; Toluene (ET(30) 33.9),17605.63 cm⁻¹
same,maximum emission Wavelength,[4]; Water (ET(30) 63.1),576 nm
same,maximum emission wavenumber,[4]; Water (ET(30) 63.1),17361.11 cm⁻¹
same,"λem,max (fluorescence emission)",[5]; 30 μM in acetonitrile in the absence of trifluoroacetic acid,565 nm
same,"λem,max (fluorescence emission)",[5]; 30 μM in acetonitrile in the presence of trifluoroacetic acid (60.0 mM TFA),400 nm and 405 nm
